Series [1] deals with BGC-823. In words: MTT assay, growth inhibition / cell viability. The format is cell-based. The conditions noted are these: Homo sapiens. The protocol:
(§1) First, we investigated whether allylated MAC alter the viability or have cytotoxic effects on cells in culture. We have performed MTT tetrazolium reduction assay following exposure of cancer cells (gastric cancer, BGC823 and SGC-7901; colon cancer, HT-29, HCT-116 and SW-480) and normal gastric epithelial cells (GES-1) to all 20 allylated MAC at a concentration of 20 μM for 24 h. […] In addition, we also found notable solubility and stability profile of these compounds (Supplementary Figure 1).
(§2) Cells were plated at a density of 8 × 10^3 cells/well in 96-well plates and allowed to attach overnight. Stock solutions of allylated MAC and curcumin were prepared in DMSO and diluted in culture media to obtain appropriate concentration. Cells were treated for 24 h and 48 h, following which, 20 μL of 5 mg/ml MTT reagent was added. Purple formazan product was dissolved by the addition of 100 μL DMSO to each well. Absorbance was then monitored at 490 nm using a plate reader (Molecular Device Spectra MAX190, USA). Percentage of cytotoxicity was determined using the following formula: Growth inhibition (%) = (OD of control−OD of test/OD of control×100%).

Series [2] relates to SGC-7901. In words: MTT assay, growth inhibition / cell viability. The series is classed as cell-based. The settings on record: Homo sapiens. The protocol:
as §1, §2
(Tetrazolium assays rely on reduction of a dye to a coloured formazan, in cell work by metabolically active cells.)

In series [3] the test system is HT-29. Nature of the series: MTT assay, growth inhibition. The series is classed as cell-based. The settings on record: Homo sapiens, HT-29, 24 h. How it is done:
as §1, §2

Series [4] relates to HCT-116. In words: MTT assay, growth inhibition. The series is classed as cell-based, human. The protocol: as §1, §2
Series [5] has as its system SW-480. Nature of the series: MTT assay, growth inhibition. The series is classed as cell-based, human. The settings on record: Homo sapiens, SW480, 24 h. The protocol: as §1, §2
Series [6] relates to GES-1. Nature of the series: MTT assay, growth inhibition in normal gastric epithelial cells. The format is cell-based, human. The protocol:
as §1, §2

Series [7] concerns BGC-823. Nature of the series: Clonogenic (colony formation) assay. The format is cell-based, human. The conditions noted are these: BGC-823, 2.5, 5 or 10 μM for 24 h, then 7 days culture. How it is done:
(§3) The BGC-823 and SGC-7901 cells were seeded at 1000 cells/well in 6 well plates and allowed to attach overnight. Cells were then exposed to various concentrations (2.5, 5 and 10 μM) of CA10 for 24 h in presence and absence of NAC (5 mM). Following treatments, media was changed to fresh culture media and cultures were followed for 7 days. The experiment was terminated by washing the colonies with PBS and fixation with […] at room temperature for 10 min. Colonies were then stained with Crystal violet for 10 min and counted.

The subject of series [8] is SGC-7901. Nature of the series: Clonogenic (colony formation) assay. The series is classed as cell-based, human. The conditions noted are these: SGC-7901, 2.5, 5 or 10 μM for 24 h, then 7 days culture. How it is done: as §3
Series [9] deals with SGC-7901 cells. In words: Malondialdehyde (MDA) and total GSH in cancer cells. The series is classed as cell-based, human. How it is done:
The treated cells were harvested with RIPA buffer at 4°C. Cell lysates were then centrifuged at 12,000 × g for 10 min at 4°C to collect the supernatant. Protein content was determined by the Bradford protein assay kit. Equal amounts of proteins were used for malondialdehyde (MDA) and total GSH assay (Beyotime Institute of Biotechnology, Nantong, China). MDA and total GSH levels were detected by measuring absorbance respectively at 532 nm and 412 nm using a multimode microplate reader (Molecular Devices, SpectraMax 190, USA

Series [10] has as its system p-STAT3. In words: Western blot of p-STAT3. The format is cell-based, human. The conditions noted are these: SGC-7901, western blot, 1, 3, 6 and 12 h; total STAT3 not changed. How it is done:
(§4) Protein samples were prepared from cells following treatments or tumor tissues. Protein concentration was determined by Bradford protein assay kit (Bio-Rad, Hercules, CA). Samples were separated on precast 8%-12% SDS polyacrylamide gels. After electrophoresis, proteins were transferred to poly vinylidene difluoride (PVDF) membrane. The membranes were blocked with 5% non-fat milk in tris-buffered saline containing 0.1% Tween 20 (TBST) for 90 min at room temperature, then primary antibodies (1:1000) in TBST were added and membranes incubated overnight at 4°C. After washing with TBST, horseradish peroxidase (HRP)-conjugated secondary antibodies (1:3000) were added for 1 hour at room temperature. After additional washing with TBST, enhanced chemiluminescence detection system (ECL, GE Healthcare) was used. Membranes were probed for GAPDH as a loading control. The density of the immunoreactive bands was analyzed using Image J (National Institute of Health, MD).
(A western blot detects proteins with antibodies after separation by electrophoresis.)

For series [11], the system named is p-PERK, p-eIF2α, ATF-4 and CHOP. Nature of the series: Western blot of ER stress proteins. The format is cell-based, human. The conditions noted are these: SGC-7901, 10 μM, 1, 3, 6 and 12 h. How it is done: as §4
The subject of series [12] is SGC-7901 xenograft tumors. In words: In vivo mouse xenograft model, tumor growth. Further details: species or system mice. The text has this: (§5) All animal experiments complied with the Wenzhou Medical University's Policy on the Care and Use of Laboratory Animals. Protocols for animal studies were approved by the Wenzhou Medical University Animal Policy and Welfare Committee (Approved documents: 2016/201). Athymic BALB/c nu/nu female mice weighing 20–22 g (6 weeks old) were purchased from Vital River Laboratories (Beijing, China). Animals were housed (6 animals/gage) at a constant room temperature with a 12/12-hr light/dark cycle and fed a standard rodent diet and water ad libitum. SGC-7901 cells were injected subcutaneously into the right flank of each mice at 1 × 10^6 cells in 0.1 mL PBS. Once tumors reached a volume of 100–200 mm^3, mice were randomly divided into 4 groups. These groups included mice treated with 10 mg/kg CA10, mice treated with 20 mg/kg CA10, mice treated 50 mg/kg curcumin, and control mice receiving vehicle alone. All treatments were carried out with intraperitoneal injections. The body weight and tumor volumes were monitored and determined by measuring length (l) and width (w) and calculated as tumor volume (V = 0.5 × l × w2) at the indicated time points. At the end of treatment period, mice were sacrificed and the tumors were removed and weighed for histological analyses and proteins measurement studies.

A short description of series [13]: H&E histology of vital organs of xenograft mice. The series is classed as in vivo. The settings on record: ip once a day for 12 days. The protocol: Portions of heart, liver, kidney and tumor tissues from mice were fixed in 4% paraformaldehyde solution for 1 week at room temperature. Specimens were then dehydrated by passing through graded ethanol, cleared in xylene, and embedded in paraffin wax. Tissue blocks were sectioned at 5 μm thickness and used for H&E and immunohistochemical staining. Tumor tissue sections were stained with indicated primary antibodies for overnight followed by secondary antibodies for 2 h. Diaminobenzidine (DAB) was used for detection. The slides were counterstained with hematoxylin for 30 seconds and mounted. For histologic analysis of heart, kidney and liver tissue sections, we performed routine H&E staining and viewed the sections under a light microscope (20× magnification, Nikon, Japan).

Series [14] is described as follows: Body weight of xenograft mice. The settings on record: 0–12 days, ip once a day; CA10 10 and 20 mg/kg, curcumin 50 mg/kg. The series is classed as in vivo.
Description: as §5

SMILES strings stand for the structures. Entries after “also recorded” stand apart in the source; their conditions may differ.

This is an account of results in PMC5731860, “Novel allylated monocarbonyl analogs of curcumin induce mitotic arrest and apoptosis by reactive oxygen species-mediated endoplasmic reticulum stress and inhibition of STAT3” (Oncotarget, 2017).

For orientation: inhibition means the drop in the measured response relative to a control, in per cent. Low values mean a weak effect, high ones a strong effect. By IC50 is commonly meant the concentration needed to halve the response being measured. Read a high IC50 as weaker potency in that assay.

In the case of `C=CCc1cc(C=C2CCC(=Cc3ccc(O)c(CC=C)c3)C2=O)ccc1O` [CA10], the inhibition at 20 µM was 67.5 ± 1.54% in [1] (BGC-823, 20 μM, 24 h); more than 80% in [2] (SGC-7901, 24 h, 20 μM, 24 h); 77.2 ± 4.86% in series [3]; 70% in series [4] (Homo sapiens, HCT-116, 24 h); 77.4 ± 7.84% in [5]; 23.4 ± 7.48% in series [6] (Homo sapiens, GES1, 24 h, normal gastric epithelial cells). Also, the half-maximal inhibitory concentration (IC50) in series [1] (BGC-823, 24 h) came out at 13 ± 2.48 µM; in series [1] (BGC-823, 48 h), 7.14 ± 1.69 µM; in series [2] (SGC-7901, 24 h) it was 15 ± 1.72 µM; in series [2] (SGC-7901, 48 h), 6.91 ± 0.43 µM. Besides, the “% Of growth inhibition HCT-116” value in series [4] (20 μM, 24 h) stood at 75.37 ± 4.52%. Also, in series [6] (20 μM, 24 h), the “inhibition of the normal epithelial cells (selective cytotoxicity in cancer cell lines), in words” value is “minimal inhibition”. In addition, the number of colonies entry in series [7] and in series [8] was “reduced number” in each case. Further, the “level of total GSH” value in [9] (compared to control) is recorded as “no significant changes; also recorded: marginally decreased”. In addition, in series [9] (enhanced at 20 μM), the MDA level result is given as “increased”. Moreover, the “protein levels of p-STAT3” value in [10] is “decreased”. In series [11], the “expression of ER specific proteins (p-PERK, p-eIF2α, ATF-4, CHOP)” value is reported as “increased expression”. In series [12] (20 mg/kg ip once a day for 12 days), the “inhibition effect on tumor growth compared to CA10 10 mg/kg or curcumin 50 mg/kg” value is “greater inhibition effect”. In addition, the “tumor weight and volume” value in series [12] (ip once a day for 12 days, CA10 10 and 20 mg/kg, curcumin 50 mg/kg) is “significant reduction”. For the same compound, the “toxicity in vital organs (heart, liver, kidney), H&E” value in series [13] is reported as “without overt toxicity”. Further, the “body weight of mice” value in [14] is “no change”.
